Data taken from patent US11021481B2, “Substituted isoindolin-1-ones and 2,3-dihydro-1h-pyrrolo[3,4-c]pyridin-1-ones as HPK1 antagonists” (Nimbus Saturn, Inc., priority 2019, dated 2021).

The molecules below were run against HPK1 (Homo sapiens (Human), UniProt Q92918) (assay: HPK1 biochemical enzyme assay (microfluidic mobility shift assay)). Settings: 1.5 nM HPK1, ATP 1 mM final, 30 min preincubation, 60 min at RT, Caliper EZ Reader; read-out: HPK1 1000UMATP caliper IC50.
Procedure: HPK1 biochemical enzyme assay: HPK1 enzyme inhibition was measured using a microfluidic mobility shift assay. […] Test compounds were titrated in ten point curves (top final assay concentration 3 μM), and preincubated with enzyme/substrate mix for 30 min prior to initiation of the reaction by addition of ATP (1 mM final concentration) and substrate (1 μM final concentration; Carna Biosciences) diluted in assay buffer supplemented by MgCl2 (final assay concentration of 5 mM). Following 60 min incubation at RT, the reaction was terminated by addition of 60 µl/well termination buffer (Carna Biosciences) and signal determination using aCaliper EZ Reader (Perkin Elmer, UK).
The compound numbers correspond to the compound numbers in Table 1.

HPK1, sequence (Q92918 whole entry): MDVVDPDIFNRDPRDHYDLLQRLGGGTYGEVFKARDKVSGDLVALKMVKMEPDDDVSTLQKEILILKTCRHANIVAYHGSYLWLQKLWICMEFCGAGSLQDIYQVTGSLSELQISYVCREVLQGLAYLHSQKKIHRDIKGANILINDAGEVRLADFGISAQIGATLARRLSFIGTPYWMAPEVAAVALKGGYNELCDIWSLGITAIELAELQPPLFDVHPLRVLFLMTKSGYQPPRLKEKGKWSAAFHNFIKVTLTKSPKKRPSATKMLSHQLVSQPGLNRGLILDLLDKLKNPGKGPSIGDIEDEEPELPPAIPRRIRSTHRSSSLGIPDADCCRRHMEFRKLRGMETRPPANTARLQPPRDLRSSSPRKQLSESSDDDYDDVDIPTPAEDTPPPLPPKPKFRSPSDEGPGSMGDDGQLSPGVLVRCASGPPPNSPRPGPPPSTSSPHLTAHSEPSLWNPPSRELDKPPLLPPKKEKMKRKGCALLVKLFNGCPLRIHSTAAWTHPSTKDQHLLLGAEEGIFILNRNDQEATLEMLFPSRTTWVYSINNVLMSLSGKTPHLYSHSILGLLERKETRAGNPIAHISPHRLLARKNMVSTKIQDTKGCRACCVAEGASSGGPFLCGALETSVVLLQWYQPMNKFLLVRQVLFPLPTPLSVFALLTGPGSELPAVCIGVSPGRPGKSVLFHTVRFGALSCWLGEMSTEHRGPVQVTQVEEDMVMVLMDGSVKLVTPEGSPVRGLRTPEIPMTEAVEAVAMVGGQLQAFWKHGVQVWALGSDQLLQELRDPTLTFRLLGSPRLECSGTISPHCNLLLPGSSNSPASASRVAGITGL

Which IC50 does the source give for “4-(1-methyl- 1H-indol-4- yl)-7-((5- (piperazin-1- yl)pyridin-2- yl)amino)-2,3- dihydro-1H- pyrrolo[3,4- c]pyridin-1-one [I-266]” here?
The IC50 was < 100 nM.

With “4-(6- methylpyrazol o[1,5-a]pyridin-3- yl)-7-[[5- (morpholino- methyl)-2- pyridyl]amino] isoindolin-1-one [I-469]” as the molecule, how does the IC50 read?
The IC50 was < 100 nM.

How did the IC50 turn out when “4-(7- fluoroimidazo [1,2-a]pyridin- 3-yl)-7-[[5-(4- morpholino-1- piperidyl)-2- pyridyl]amino] isoindolin-1- one [I-488]” was run?
The IC50 was < 100 nM.

“4-imidazo[1,2- a]pyridin-3-yl- 7-[(5-morpholino-2- pyridyl)-amino]-2,3- dihydropyrrolo [3,4-c]pyridin-1- one [I-198]” was tested. Which IC50 did it give?
The IC50 was 100 to 1000 nM.

For “7-[[5-(4-hydroxy-1- piperidyl)-2-pyridyl] amino]-4-imidazo[1,2- a]pyridin-3-yl- isoindolin-1-one [I-125]”, which IC50 is on record?
Its IC50 is < 100 nM.

For “7-[[5-[(2R)-2- (1-hydroxy-1- methylethyl)morpholin- 4-yl]-2- pyridyl]amino]- 4-imidazo[1,2- a]pyrazin-3-yl- isoindolin-1-one [I-486]”, which IC50 is on record?
The IC50 was < 100 nM.

Which IC50 does the source give for “7-[[6- [(dimethylamino)- methyl]-5- tetrahydrofuran- 3-yl-2- pyridyl]amino]- 4-(7- methylimidazo [1,2-a]pyrimidin-3- yl)isoindolin- 1-one [I-846]” here?
Its IC50 is < 100 nM.

For `Cn1ccc2c(-c3ccc(Nc4ccc(N5CCC[C@H](C(C)(C)O)C5)cn4)c4c3CNC4=O)ccnc21` (single isomer, unassigned) [I-280], which IC50 is on record?
Its IC50 is < 100 nM.

Which IC50 does the source give for `Cn1ccc2c(-c3ccc(Nc4ccc(N5CCC[C@@H](C(C)(C)O)C5)cn4)c4c3CNC4=O)ccnc21` (single isomer, unassigned) [I-281] here?
Its IC50 is < 100 nM.

Which IC50 does the source give for `C[C@@H]1CCn2c(-c3ccc(Nc4ccc(N5CCC(O)CC5)cn4)c4c3CNC4=O)cnc2C1` (single isomer, unassigned) [I-302] here?
The IC50 was 100 to 1000 nM.

Which IC50 does the source give for `Cn1ccc2c(-c3ccc(-n4ccc(N5CCC[C@@](C)(O)C5)n4)c4c3CNC4=O)ccnc21` (single isomer, unassigned) [I-305] here?
Its IC50 is > 1000 nM.

`Cn1ccc2c(-c3ccc(-n4ccc(N5CCC[C@](C)(O)C5)n4)c4c3CNC4=O)ccnc21` (single isomer, unassigned) [I-306] was tested. Which IC50 did it give?
Its IC50 is > 1000 nM.

`C[C@@H](O)[C@H]1CN(c2ccc(Nc3ccc(-c4cnc5cc(F)ccn45)c4c3C(=O)NC4)nc2)CCO1` (single isomer, unassigned) [I-619] was tested. Which IC50 did it give?
Its IC50 is < 100 nM.

With `C[C@H](O)[C@@H]1CN(c2ccc(Nc3ccc(-c4cnc5cc(F)ccn45)c4c3C(=O)NC4)nc2)CCO1` (single isomer, unassigned) [I-620] as the molecule, how does the IC50 read?
The IC50 was < 100 nM.

With `C[C@H](c1ccc(Nc2ccc(-c3cnc4cc(F)ccn34)c3c2C(=O)NC3)nc1)N1CCOCC1` (single isomer, unassigned) [I-639] as the molecule, how does the IC50 read?
Its IC50 is < 100 nM.

With `C[C@@H](c1ccc(Nc2ccc(-c3cnc4cc(F)ccn34)c3c2C(=O)NC3)nc1)N1CCOCC1` (single isomer, unassigned) [I-640] as the molecule, how does the IC50 read?
The IC50 was < 100 nM.

For `Cn1ccc2c(-c3ncc(Nc4cncc(N5CC[C@H]6CNC[C@H]65)n4)c4c3CNC4=O)ccnc21` (single isomer, unassigned) [I-660], which IC50 is on record?
Its IC50 is < 100 nM.

For `Cn1ccc2c(-c3ncc(Nc4cncc(N5CC[C@@H]6CNC[C@@H]65)n4)c4c3CNC4=O)ccnc21` (single isomer, unassigned) [I-661], which IC50 is on record?
The IC50 was 100 to 1000 nM.

How did the IC50 turn out when `O=C1NCc2c(-c3cnc4cc(F)ccn34)ccc(Nc3ccc(N4CCO[C@H](C5(O)CC5)C4)cn3)c21` (single isomer, unassigned) [I-662] was run?
The IC50 was < 100 nM.

With `O=C1NCc2c(-c3cnc4cc(F)ccn34)ccc(Nc3ccc(N4CCO[C@@H](C5(O)CC5)C4)cn3)c21` (single isomer, unassigned) [I-663] as the molecule, how does the IC50 read?
Its IC50 is < 100 nM.

Which IC50 does the source give for `CC(C)(N)[C@@H]1CN(c2ccc(Nc3ccc(-c4cnc5cc(F)ccn45)c4c3C(=O)NC4)nc2)CCO1` (single isomer, unassigned) [I-670] here?
Its IC50 is < 100 nM.

Which IC50 does the source give for `Cn1ccc2c(-c3ncc(Nc4ccc(N5CCC[C@@](O)(CN6CCOCC6)C5)cn4)c4c3CNC4=O)ccnc21` (single isomer, unassigned) [I-673] here?
The IC50 was < 100 nM.

`Cn1ccc2c(-c3ncc(Nc4ccc(N5CCC[C@](O)(CN6CCOCC6)C5)cn4)c4c3CNC4=O)ccnc21` (single isomer, unassigned) [I-674] was tested. Which IC50 did it give?
Its IC50 is < 100 nM.

With `CNC(C)(C)[C@@H]1CN(c2ccc(Nc3ccc(-c4cnc5cc(F)ccn45)c4c3C(=O)NC4)nc2)CCO1` (single isomer, unassigned) [I-675] as the molecule, how does the IC50 read?
Its IC50 is < 100 nM.

`CNC(C)(C)[C@H]1CN(c2ccc(Nc3ccc(-c4cnc5cc(F)ccn45)c4c3C(=O)NC4)nc2)CCO1` (single isomer, unassigned) [I-676] was tested. Which IC50 did it give?
Its IC50 is < 100 nM.

For `O=C1NCc2c(-c3cnc4cc(F)ccn34)ccc(Nc3ccc([C@H]4CCOC4)c(CNCC(F)F)n3)c21` (single isomer, unassigned) [I-739], which IC50 is on record?
Its IC50 is < 100 nM.

How did the IC50 turn out when `O=C1NCc2c(-c3cnc4cc(F)ccn34)ccc(Nc3ccc([C@@H]4CCOC4)c(CNCC(F)F)n3)c21` (single isomer, unassigned) [I-740] was run?
The IC50 was < 100 nM.

For `CN(Cc1nc(Nc2ccc(-c3cnc4cc(F)ccn34)c3c2C(=O)NC3)ccc1[C@H]1CCOC1)CC(F)F` (single isomer, unassigned) [I-748], which IC50 is on record?
Its IC50 is < 100 nM.

How did the IC50 turn out when `CN(Cc1nc(Nc2ccc(-c3cnc4cc(F)ccn34)c3c2C(=O)NC3)ccc1[C@@H]1CCOC1)CC(F)F` (single isomer, unassigned) [I-749] was run?
Its IC50 is < 100 nM.

With `CNCc1nc(Nc2cnc(-c3ccnc4c3ccn4C)c3c2C(=O)NC3)ccc1[C@@H]1CCOC1` (single isomer, unassigned) [I-813] as the molecule, how does the IC50 read?
Its IC50 is < 100 nM.

`CNCc1nc(Nc2cnc(-c3ccnc4c3ccn4C)c3c2C(=O)NC3)ccc1[C@H]1CCOC1` (single isomer, unassigned) [I-814] was tested. Which IC50 did it give?
Its IC50 is < 100 nM.

`C[C@@H](c1nc(Nc2ccc(-c3cnc4cc(F)ccn34)c3c2C(=O)NC3)ccc1[C@H]1CCOC1)N(C)C` (single isomer, unassigned) [I-818] was tested. Which IC50 did it give?
Its IC50 is 100 to 1000 nM.

Which IC50 does the source give for `CN(C)Cc1nc(Nc2ccc(-c3cnc4cc(F)ccn34)c3c2C(=O)NC3)ccc1N1CCOC[C@H](O)C1` (single isomer, unassigned) [I-819] here?
The IC50 was < 100 nM.

`CN(C)Cc1nc(Nc2ccc(-c3cnc4cc(F)ccn34)c3c2C(=O)NC3)ccc1N1CCOC[C@@H](O)C1` (single isomer, unassigned) [I-820] was tested. Which IC50 did it give?
The IC50 was < 100 nM.

With `C[C@@H](c1nc(Nc2ccc(-c3cnc4cc(F)ccn34)c3c2C(=O)NC3)ccc1[C@H]1CCOC1)N(C)C` (single isomer, unassigned) [I-822] as the molecule, how does the IC50 read?
The IC50 was < 100 nM.

How did the IC50 turn out when `CC1COc2c(-c3ccc(Nc4ccc(N5CCN(C)CC5)cn4)c4c3CNC4=O)cnn2C1` (stereo in doubt) [I-259, (R)-4-(6-methyl-6,7-dihydro-5H-pyrazolo[5,1-b][1,3]oxazin-3-yl)-7-((5-(4-methylpiperazin-1-yl)pyridin-2-yl)amino)isoin-dolin-1-one] was run?
Its IC50 is 100 to 1000 nM.

With `COCC1CN(c2ccc(Nc3ccc(-c4cnc5cnccn45)c4c3C(=O)NC4)nc2)CCO1` (stereo in doubt) [I-333, (S)-4-(imidazo[1,2-a]pyrazin-3-yl)-7-((5-(2-(methoxymeth-yl)morpholino)-pyridin-2-yl)amino)isoin-dolin-1-one] as the molecule, how does the IC50 read?
The IC50 was < 100 nM.
